The subject of assay [1] is HCV replicon in Huh7 cells. The assay can be described thus: HCV replicon cell-based assay. The arrangement: species or system HCV strain 1B. To be noted: Hepatitis C virus, Huh-7; HCV replicon, Huh7 cells; read-out: EC50 range.
For assay [2], the target named is HCV NS3/4A protease complex, BMS strain (UniProt P27958, C1454S/C1711G, species not given/STRAIN_BMS). Briefly: Recombinant HCV NS3/4A protease complex FRET peptide assay (BMS strain). It counts as biochemical, HCV genotype 1a. Particulars: NS3/4A BMS strain; read-out: IC50 range. In a few lines:
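Recombinant BMS-strain NS3/4A (His-tagged NS4A with three-lysine tail, E. coli) at 2-3 nM preincubated 1 min with compound, then 2 μM ester-linked NS4A/NS4B-based FRET peptide added. Fluorescence followed in real time ~15 min at 25° C. Percent inhibition from slope of linear fluorescence change versus no-compound control.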

Another assay concerns HCV. To be noted: cited from earlier work.

Here are results for six molecules from patent publication US7915291B2, “Hepatitis C virus inhibitors” (Bristol-Myers Squibb Company, priority 2002, dated 2011).

Turning to `C=C[C@@H]1C[C@]1(NC(=O)[C@@H]1C[C@@H](Oc2cc(C)nc(-c3ccccc3)c2)CN1C(=O)[C@@H](NC(=O)OC(C)(C)C)C(C)(C)C)C(=O)NS(=O)(=O)C1CC1` [Compound 437], in assay [1], the EC50 is 100 to 1000 nM. In addition, the IC50 in assay [2] was < 100 nM.

Consider `C=C[C@@H]1C[C@]1(NC(=O)[C@@H]1C[C@@H](Oc2cc(C)nc(-c3cccs3)c2)CN1C(=O)[C@@H](NC(=O)OC(C)(C)C)C(C)(C)C)C(=O)NS(=O)(=O)C1CC1` [Compound 438], for which the EC50 in assay [1] lay in the range of 100 to 1000 nM. Also, in assay [2], the IC50 is < 100 nM.

As for `C=CC1CC1(NC(=O)[C@@H]1C[C@@H](Oc2cc(C(F)(F)F)nc3ccc(F)cc23)CN1C(=O)[C@@H](NC(=O)OC(C)(C)C)C(C)(C)C)C(=O)NS(=O)(=O)C1CC1` (stereo partly shown) [Compound 450], the EC50 in assay [1] is 100 to 1000 nM. The IC50 in assay [2] was < 100 nM.

`C=CC1CC1(NC(=O)[C@@H]1C[C@@H](OCc2ccc3ccccc3c2)CN1C(=O)[C@@H](NC(=O)OC(C)(C)C)C(C)(C)C)C(=O)NS(C)(=O)=O` (stereo partly shown) [Compound 454]: the EC50 in assay [1] lay in the range of 1000 to 10000 nM. For the same molecule, the IC50 in assay [2] fell in the range of 100 to 1000 nM.

With alpha-interferon and ribavirin, in the assay with HCV (HCV infected patients, combination therapy), the “sustained efficacy, share of patients” value is 40%.

Regarding pegylated alpha-interferon, in the assay on HCV (HCV patients, monotherapy, recent clinical results), the “clinical comparison as monotherapy” value is “superior to unmodified alpha-interferon”.
